Literature values as cited in publication PMC7878667, “The Kinase Specificity of Protein Kinase Inhibitor Peptide” (Frontiers in Pharmacology, 2021).

Columns and labels:
[1] = system: PKBα; details: ref Murray, 2008
Text: (§1) Despite the additional targets of PKI identified in our study, PKI seems more specific than the other commonly used PKA inhibitors, H89 and KT 5720 ([Murray, 2008]). This may be due to their different mechanisms of action. […] The off-target effects of these reagents have partial overlap ([Murray, 2008]).

[2] = system: PDK1; details: ref Murray, 2008
Text: as §1

[3] = system: PKA catalytic subunit; details: ref Murray, 2008
Text: as §1

[4] = system: PKC; details: ref Day et al., 1989; Smith et al., 1990
Text: In principle, this could be due to PKI interfering with 1) the protease reaction, 2) the fluorescence detection, or 3) the FRET response. […] Second, the forms of PKC used are different: we used purified human recombinant PKC isoforms expressed in insect ce ...

[5] = system: ROCK2; details: ref Murray, 2008
Text: as §1

Compound	effect on PKBα [1]	effect on PDK1 activity [2]	mechanism of PKA inhibition [3]	influence on PKC [4]	effect on ROCK2 [5]
CCCCCCOC(=O)[C@]1(O)C[C@@H]2O[C@@]1(C)n1c3ccccc3c3c4c(c5c6ccccc6n2c5c31)C(=O)NC4 [KT 5720]	inhibited	inhibited	competitively inhibits ATP binding on the PKA catalytic subunit	–	–
IAAGRTGRRQAIHDILVAA [PKI-tide]	–	–	–	did not find significant influence	–
O=S(=O)(NCCNC/C=C/c1ccc(Br)cc1)c1cccc2cnccc12 [H89]	inhibited	–	competitively inhibits ATP binding on the PKA catalytic subunit	–	inhibits ROCK2 potently
